Experimental data published in ChEMBL document CHEMBL3991601, “The target landscape of clinical kinase drugs” (Science, 2017).
The source made the active and inactive calls. For most assays here, no stated cut-off is given here; in the data, actives have a measured Kd and inactives only a lower limit.

Experiments:
[1] = target: T1, Beta-adrenergic receptor kinase 1 (Homo sapiens, UniProt P25098)
T1 sequence (P25098 whole entry): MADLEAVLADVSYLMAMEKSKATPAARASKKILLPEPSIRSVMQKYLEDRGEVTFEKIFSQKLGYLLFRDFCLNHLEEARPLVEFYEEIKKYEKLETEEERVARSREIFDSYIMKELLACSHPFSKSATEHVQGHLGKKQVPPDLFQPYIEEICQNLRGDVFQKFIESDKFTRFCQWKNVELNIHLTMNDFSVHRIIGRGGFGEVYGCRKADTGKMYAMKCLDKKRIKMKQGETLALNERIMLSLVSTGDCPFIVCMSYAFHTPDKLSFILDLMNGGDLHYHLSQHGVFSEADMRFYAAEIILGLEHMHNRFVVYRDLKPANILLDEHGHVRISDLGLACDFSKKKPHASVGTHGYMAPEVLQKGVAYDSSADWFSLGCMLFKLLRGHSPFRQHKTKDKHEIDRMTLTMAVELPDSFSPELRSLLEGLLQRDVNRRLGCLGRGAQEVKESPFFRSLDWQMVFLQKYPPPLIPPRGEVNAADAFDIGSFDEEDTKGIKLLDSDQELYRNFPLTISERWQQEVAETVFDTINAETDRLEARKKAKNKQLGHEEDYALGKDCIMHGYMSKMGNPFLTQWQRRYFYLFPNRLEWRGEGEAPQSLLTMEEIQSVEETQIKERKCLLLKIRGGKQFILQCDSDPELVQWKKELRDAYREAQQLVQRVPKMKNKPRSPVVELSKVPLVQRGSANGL

[2] = target: T2, Calcium/calmodulin-dependent protein kinase type IV (Homo sapiens, UniProt Q16566)
T2 sequence (Q16566 whole entry): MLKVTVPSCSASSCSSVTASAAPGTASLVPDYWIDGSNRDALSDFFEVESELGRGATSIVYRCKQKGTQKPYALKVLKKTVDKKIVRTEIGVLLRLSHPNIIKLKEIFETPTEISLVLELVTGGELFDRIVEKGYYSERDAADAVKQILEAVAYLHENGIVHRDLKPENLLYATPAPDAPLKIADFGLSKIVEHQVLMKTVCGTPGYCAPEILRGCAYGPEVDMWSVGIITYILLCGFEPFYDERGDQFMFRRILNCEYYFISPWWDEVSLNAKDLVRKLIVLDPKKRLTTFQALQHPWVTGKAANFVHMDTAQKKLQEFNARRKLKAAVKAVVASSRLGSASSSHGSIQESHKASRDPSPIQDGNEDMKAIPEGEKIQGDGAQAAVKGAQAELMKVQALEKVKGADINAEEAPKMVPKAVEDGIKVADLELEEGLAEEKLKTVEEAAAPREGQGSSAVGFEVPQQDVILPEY

[3] = target: T3, Membrane-associated tyrosine- and threonine-specific cdc2-inhibitory kinase (Homo sapiens, UniProt Q99640)
T3 sequence (Q99640 whole entry): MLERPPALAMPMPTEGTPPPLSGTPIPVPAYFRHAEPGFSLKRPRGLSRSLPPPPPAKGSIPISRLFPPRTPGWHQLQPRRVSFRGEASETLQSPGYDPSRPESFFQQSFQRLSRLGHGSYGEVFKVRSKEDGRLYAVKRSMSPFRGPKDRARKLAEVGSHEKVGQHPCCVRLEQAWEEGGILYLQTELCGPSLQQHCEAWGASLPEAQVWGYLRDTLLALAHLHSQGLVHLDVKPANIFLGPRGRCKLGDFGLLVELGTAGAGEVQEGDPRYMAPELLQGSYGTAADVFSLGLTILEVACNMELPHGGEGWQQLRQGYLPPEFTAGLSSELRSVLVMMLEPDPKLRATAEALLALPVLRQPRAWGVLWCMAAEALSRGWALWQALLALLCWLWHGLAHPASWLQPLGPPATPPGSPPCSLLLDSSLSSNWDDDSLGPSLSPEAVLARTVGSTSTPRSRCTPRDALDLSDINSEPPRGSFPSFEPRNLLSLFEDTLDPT

[4] = target: Protein kinase C delta type (Homo sapiens, UniProt Q05655)
Chain of Protein kinase C delta type (Q05655 whole entry): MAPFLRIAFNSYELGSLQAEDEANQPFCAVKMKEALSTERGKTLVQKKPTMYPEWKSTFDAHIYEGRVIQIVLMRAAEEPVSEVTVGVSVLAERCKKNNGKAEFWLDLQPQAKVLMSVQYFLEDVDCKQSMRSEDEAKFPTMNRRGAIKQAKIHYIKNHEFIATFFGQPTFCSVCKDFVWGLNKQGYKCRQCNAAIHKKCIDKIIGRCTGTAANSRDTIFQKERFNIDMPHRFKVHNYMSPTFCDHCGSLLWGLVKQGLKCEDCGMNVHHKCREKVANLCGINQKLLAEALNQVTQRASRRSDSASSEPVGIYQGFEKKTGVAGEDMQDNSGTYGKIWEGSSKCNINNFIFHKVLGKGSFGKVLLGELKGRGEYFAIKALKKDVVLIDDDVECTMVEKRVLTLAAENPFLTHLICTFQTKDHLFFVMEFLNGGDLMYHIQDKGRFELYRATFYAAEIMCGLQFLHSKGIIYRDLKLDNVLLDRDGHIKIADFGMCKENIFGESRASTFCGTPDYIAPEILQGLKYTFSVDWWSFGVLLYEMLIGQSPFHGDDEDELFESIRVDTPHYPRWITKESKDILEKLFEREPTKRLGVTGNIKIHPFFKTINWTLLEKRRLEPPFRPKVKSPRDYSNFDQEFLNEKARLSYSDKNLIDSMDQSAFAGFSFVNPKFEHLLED

[5] = target: Ribosomal protein S6 kinase alpha-3 (Homo sapiens, UniProt P51812)
Chain of Ribosomal protein S6 kinase alpha-3 (P51812 whole entry): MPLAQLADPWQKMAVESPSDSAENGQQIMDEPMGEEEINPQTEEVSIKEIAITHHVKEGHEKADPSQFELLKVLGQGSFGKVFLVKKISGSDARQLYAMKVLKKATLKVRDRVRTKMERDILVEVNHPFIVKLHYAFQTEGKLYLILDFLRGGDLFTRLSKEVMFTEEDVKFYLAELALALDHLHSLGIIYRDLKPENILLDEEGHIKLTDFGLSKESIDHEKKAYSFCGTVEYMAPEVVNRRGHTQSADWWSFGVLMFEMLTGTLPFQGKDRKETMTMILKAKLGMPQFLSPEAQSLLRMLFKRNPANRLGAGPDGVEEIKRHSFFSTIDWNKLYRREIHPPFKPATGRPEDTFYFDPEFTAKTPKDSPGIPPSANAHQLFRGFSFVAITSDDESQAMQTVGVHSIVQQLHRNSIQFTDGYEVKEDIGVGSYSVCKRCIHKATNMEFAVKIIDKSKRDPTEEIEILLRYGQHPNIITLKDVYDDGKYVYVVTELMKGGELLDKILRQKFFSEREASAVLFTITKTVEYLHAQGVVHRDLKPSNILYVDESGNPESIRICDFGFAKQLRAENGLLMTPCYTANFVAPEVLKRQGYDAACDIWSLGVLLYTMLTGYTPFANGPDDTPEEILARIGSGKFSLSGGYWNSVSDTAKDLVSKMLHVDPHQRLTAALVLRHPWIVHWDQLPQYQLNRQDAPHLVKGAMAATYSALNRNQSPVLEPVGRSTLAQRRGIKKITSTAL

[6] = target: Serine/threonine-protein kinase 26 (Homo sapiens, UniProt Q9P289)
Chain of Serine/threonine-protein kinase 26 (Q9P289 whole entry): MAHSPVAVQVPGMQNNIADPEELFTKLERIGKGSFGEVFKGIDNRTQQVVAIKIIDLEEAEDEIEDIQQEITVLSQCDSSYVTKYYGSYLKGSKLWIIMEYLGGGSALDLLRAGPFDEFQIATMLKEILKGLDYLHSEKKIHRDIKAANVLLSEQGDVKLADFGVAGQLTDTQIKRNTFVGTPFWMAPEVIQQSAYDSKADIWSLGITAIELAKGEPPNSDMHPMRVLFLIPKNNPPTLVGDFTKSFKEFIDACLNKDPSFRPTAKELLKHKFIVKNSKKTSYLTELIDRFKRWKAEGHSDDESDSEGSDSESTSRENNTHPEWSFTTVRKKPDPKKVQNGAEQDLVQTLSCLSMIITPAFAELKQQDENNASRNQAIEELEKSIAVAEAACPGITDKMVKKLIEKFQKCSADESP

[7] = target: T4, Non-receptor tyrosine-protein kinase TNK1 (Homo sapiens, UniProt Q13470)
T4 sequence (Q13470 whole entry): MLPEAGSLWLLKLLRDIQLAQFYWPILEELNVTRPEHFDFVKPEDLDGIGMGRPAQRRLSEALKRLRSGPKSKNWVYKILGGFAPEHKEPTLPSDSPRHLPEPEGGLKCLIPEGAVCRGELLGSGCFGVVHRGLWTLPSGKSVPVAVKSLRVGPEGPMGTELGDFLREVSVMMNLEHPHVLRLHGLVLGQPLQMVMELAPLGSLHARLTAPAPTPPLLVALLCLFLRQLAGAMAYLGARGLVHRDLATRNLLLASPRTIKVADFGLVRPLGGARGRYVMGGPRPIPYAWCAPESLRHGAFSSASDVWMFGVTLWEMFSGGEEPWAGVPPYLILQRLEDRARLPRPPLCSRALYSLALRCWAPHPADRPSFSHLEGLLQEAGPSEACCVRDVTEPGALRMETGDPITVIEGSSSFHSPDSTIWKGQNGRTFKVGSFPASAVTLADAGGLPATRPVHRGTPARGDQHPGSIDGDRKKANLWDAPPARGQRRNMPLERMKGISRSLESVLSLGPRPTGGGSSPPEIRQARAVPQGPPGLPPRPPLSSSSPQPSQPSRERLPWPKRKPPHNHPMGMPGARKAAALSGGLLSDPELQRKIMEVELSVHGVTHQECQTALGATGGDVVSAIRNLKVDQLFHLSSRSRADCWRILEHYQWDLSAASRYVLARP

Row | Kd [1] | Kd [2] | Kd [3] | Kd [4] | Kd [5] | Kd [6] | Kd [7] | SMILES
1 | > 30 µM (inactive) | > 30 µM (inactive) | > 30 µM (inactive) | > 30 µM (inactive) | 6 µM (active) | > 30 µM (inactive) | 0.558 µM | CCS(=O)(=O)c1cccc(-c2cc(C(=O)NC3CCN(C)CC3)c(C)c3[nH]c4ncc(C)cc4c23)c1 [TAK-901]
2 | > 30 µM (inactive) | > 30 µM (inactive) | > 30 µM (inactive) | > 30 µM (inactive) | > 30 µM (inactive) | > 30 µM (inactive) | 0.003 µM (active) | CC(C)c1cc(CNc2nc(Nc3cc(C4CC4)[nH]n3)cc(N3CCN(C)CC3)n2)on1 [XL-228]
3 | > 30 µM (inactive) | > 30 µM (inactive) | > 30 µM (inactive) | 0.034 µM (active) | > 30 µM (inactive) | > 30 µM (inactive) | > 30 µM (inactive) | C[C@@H](N)c1ccc(C(=O)Nc2ccnc3[nH]ccc23)cc1 [Y-39983]

The remaining lines, values behind:

Row | SMILES | Kd [1] | Kd [2] | Kd [3] | Kd [4] | Kd [5] | Kd [6] | Kd [7]
4 | CO[C@H]1C[C@@H]2CC[C@@H](C)[C@@](O)(O2)C(=O)C(=O)N2CCCC[C@H]2C(=O)O[C@H]([C@H](C)C[C@@H]2CC[C@@H](O)[C@H](OC)C2)CC(=O)[C@H](C)/C=C(\C)[C@@H](O)[C@@H](OC)C(=O)[C@H](C)C[C@H](C)/C=C/C=C/C=C/1C [SIROLIMUS] | > 30 µM (inactive) | > 30 µM (inactive) | > 30 µM (inactive) | > 30 µM (inactive) | > 30 µM (inactive) | > 30 µM (inactive) | > 30 µM (inactive)
5 | CO[C@H]1C[C@@H]2CC[C@@H](C)[C@@](O)(O2)C(=O)C(=O)N2CCCC[C@H]2C(=O)O[C@H]([C@H](C)C[C@@H]2CC[C@@H](OC(=O)C(C)(CO)CO)[C@H](OC)C2)CC(=O)[C@H](C)/C=C(\C)[C@@H](O)[C@@H](OC)C(=O)[C@H](C)C[C@H](C)/C=C/C=C/C=C/1C [TEMSIROLIMUS] | > 30 µM (inactive) | > 30 µM (inactive) | > 30 µM (inactive) | > 30 µM (inactive) | > 30 µM (inactive) | > 30 µM (inactive) | > 30 µM (inactive)
6 | COc1cc2c(Nc3ccc(Cl)c(Cl)c3F)ncnc2cc1OC[C@@H]1C[C@@H]2CN(C)C[C@@H]2C1 [TESEVATINIB] | > 30 µM (inactive) | > 30 µM (inactive) | > 30 µM (inactive) | > 30 µM (inactive) | > 30 µM (inactive) | > 30 µM (inactive) | > 30 µM (inactive)
7 | O=C(Cc1ccc(-c2ccc(OCCN3CCOCC3)cc2)cn1)NCc1ccccc1 [TIRBANIBULIN] | > 30 µM (inactive) | > 30 µM (inactive) | > 30 µM (inactive) | > 30 µM (inactive) | > 30 µM (inactive) | > 30 µM (inactive) | > 30 µM (inactive)
8 | O=C1NC(=O)[C@@H](c2cn3c4c(cccc24)CCC3)[C@@H]1c1c[nH]c2ccccc12 [TIVANTINIB] | > 30 µM (inactive) | > 30 µM (inactive) | > 30 µM (inactive) | > 30 µM (inactive) | > 30 µM (inactive) | > 30 µM (inactive) | > 30 µM (inactive)
9 | C[C@@H](NC(=O)c1ncnc(N)c1Cl)c1ncc(C(=O)Nc2cc(C(F)(F)F)c(Cl)cn2)s1 [TOVORAFENIB] | > 30 µM (inactive) | > 30 µM (inactive) | > 30 µM (inactive) | > 30 µM (inactive) | > 30 µM (inactive) | > 30 µM (inactive) | > 30 µM (inactive)
10 | Cc1cc(Nc2ncnc3ccc(NC4=NC(C)(C)CO4)cc23)ccc1Oc1ccn2ncnc2c1 [TUCATINIB] | > 30 µM (inactive) | > 30 µM (inactive) | > 30 µM (inactive) | > 30 µM (inactive) | > 30 µM (inactive) | > 30 µM (inactive) | > 30 µM (inactive)
11 | CN1C/C=C/CCOc2cccc(c2)-c2ccnc(n2)Nc2cccc(c2)C1 [ZOTIRACICLIB] | > 30 µM (inactive) | > 30 µM (inactive) | > 30 µM (inactive) | 0.996 µM (active) | > 30 µM (inactive) | > 30 µM (inactive) | > 30 µM (inactive)
